Test results from article PMC3694096, “Development of Novel In Vivo Chemical Probes to Address CNS Protein Kinase Involvement in Synaptic Dysfunction” (PLoS ONE, 2013).

Experiments:
[1] = molecular target: casein kinase 1δ (CK1δ), p38βMAPK and other kinases; details: cited from earlier work
[2] = Dose escalation adverse event screen (SHIRPA based); format: in vivo; details: highest dose at which no adverse events are observed in dose escalation studies, mice
Excerpt: Novel compounds were screened in vivo using a standard dose escalation screen in mice coupled with clinical observation and testing based on the SHIRPA mouse phenotype assay paradigm. To obtain insight into the potential for off-target activity with the largest known family of small molecule drug targets, G-protein coupled receptors (GPCRs), a cell-based functional screen of the final title compounds was done. The Millipore® GPCR Profiler screen employs the ChemiScreen GPCR stable cell line technology used for real-time calcium flux FLIPR assays on a panel of 158 GPCRs to detect both antagonists and agonists. The NCBI Entrez identifier for each GPCR is provided at the vendor site (www.millipore.com). Follow-up validation of any initial hits as being true positives or negatives was done as described above for protein kinases by testing the concentration dependence of any cellular effects. No validated hits were detected.

p38MAPKs = system: p38MAPKs; set-up: method as in PMID 17079143; details: cited from earlier work

## COc1nccc(-c2c(-c3ccc(F)cc3)ncn2C2CCC(O)CC2)n1 (centres unmarked) [SB239063]
[1]
  kinase cross-over: inhibit casein kinase 1δ (CK1δ), p38βMAPK and other kinases

## c1ccc(-c2nnc(N3CCN(c4ncccn4)CC3)cc2-c2ccncc2)cc1 [MW069a]
[2]
  Dose Escalating Adverse Event Screen / Adverse Pharm Dose: 60 mg/kg

## CCCN(C)c1cc(-c2ccncc2)c(-c2ccccc2)nn1 [MW207]
[2]
  Dose Escalating Adverse Event Screen / Adverse Pharm Dose: > 200 mg/kg

## CN1CCN(c2cc(-c3ccncc3)c(-c3ccccc3)nn2)CC1 [MW066]
[2]
  Dose Escalating Adverse Event Screen / Adverse Pharm Dose: > 200 mg/kg

## C[S+]([O-])c1ccc(-c2nc(-c3ccncc3)c(-c3ccc(F)cc3)[nH]2)cc1 (centres unmarked) [SB203580]
[1]
  kinase cross-over: inhibit casein kinase 1δ (CK1δ), p38βMAPK and other kinases

## c1ccc(-c2cc(-c3ccncc3)c(N3CCN(c4ncccn4)CC3)nn2)cc1 [MW01-6-189WH]
p38MAPKs
  interaction with p38MAPKs: does not interact with p38MAPKs

## CCN(CC)c1cc(-c2ccncc2)c(-c2ccccc2)nn1 [MW177]
[2]
  Dose Escalating Adverse Event Screen / Adverse Pharm Dose: > 200 mg/kg

## CN(C)c1cc(-c2ccncc2)c(-c2ccccc2)nn1 [MW105, N, N-dimethyl-6-phenyl-5-(pyridin-4-yl)pyridazin-3-amine]
[2]
  Dose Escalating Adverse Event Screen / Adverse Pharm Dose: > 200 mg/kg
